Results taken from publication PMC9867837 (Cancer letters, 2022).

Legend:
[1] = target: T1, pYStat3C542S (Homo sapiens, UniProt P40763, C542S); test: EMSA with purified mutant pYStat3C542S; type: biochemical; conditions: 3 μM H182, 30 min
T1 construct: made in house; host or cells: E. coli BL21(DE3) TKB1 (inducible tyrosine kinase)
From the text: This construct was used to generate the mutants, Stat3C328A, Stat3C426A, Stat3C468A, and Stat3C542S, as described in detail in Supplementary Information “Methods”.
The expression of un-phosphorylated and tyrosine phosphorylated His-tagged recombinant wtStat3 and mutant Stat3 proteins in BL21 (DE3) bacterial cells is described in detail in Supplementary Information “Methods”.
Given the MS data, we conducted site-directed mutagenesis analysis for the effects of Cys mutations (Cys-to-Ala or Cys-to-Ser mutations) on the inhibitory activities or potencies of the compounds. […]
In another case, the nuclear extract was pre-incubated with the radiolabeled probe for 30 min at 30 °C prior to incubation with increasing concentration of H182 at room temperature for 30 min and subjecting to EMSA analysis. Bands corresponding to Stats DNA- binding activities were scanned and quantified using ImageJ and plotted as a percentage of control (vehicle) against the concentration of the inhibitor, from which the IC50 values were derived . […]
These studies were performed as previously reported using the v-Src -transformed NIH3T3/v-Src fibroblasts [1 -5] . […] Luciferase activity was normalized to total protein concentration of cell lysate, which was determined by Bradford assay (Bio-Rad, Hercules, CA) . […]

[2] = test system: MDA-MB-231 cells; test: Wound healing (scratch) assay for migration; type: cell-based, human; conditions: one-time treatment, 22 h
Experimental: Studies were performed as previously reported. Details are presented in Supplementary Information, “Methods”. […]
software and Prism GraphPad software (San Diego, CA), using the one-site model. Control experiments were carried out by titration H182 into buffer, buffer into Stat3, and buffer into buffer. The three controls were used as a composite for the ITC experiment to subtract the heat of dilution and background noise from […]
1.2.11. Wound healing assay for migration
Studies were performed as previously reported [1 -3]. Briefly, cells were cultured in 6-well plates, and the monolayer of cells was scratched with a p10 pipet tip. Subsequently, fresh medium containing inhibitors or DMSO (control) was added, and then immediately, cells were imaged with a Canon Powershot A640 digital camera under a phase contrast with the Zeiss Axiovert 200 inverted microscope at 10X magnification and noted as the zero time-point. Following culture for 22 h to allow cells to migrate into the denuded area, the culture was then imaged again at the same field that was marked on the plate.
1.2.12. Annexin V binding/apoptosis and flow cytometric analysis
For apoptosis analysis, annexin V/propidium iodide (PI) staining was performed. […] The annexin V- and/or PI-positive cells were analyzed by FACScan flow cytometer (BD Biosciences) and data was analyzed using FlowJo software. […]

[3] = target: T2, hERG (Homo sapiens, UniProt Q12809); test: CEREP SafetyScreen44, hERG; type: binding; conditions: 10 μM H182
T2 construct: Eurofins-CEREP (contract research organisation that ran the assay)
T2 sequence (Q12809 whole entry): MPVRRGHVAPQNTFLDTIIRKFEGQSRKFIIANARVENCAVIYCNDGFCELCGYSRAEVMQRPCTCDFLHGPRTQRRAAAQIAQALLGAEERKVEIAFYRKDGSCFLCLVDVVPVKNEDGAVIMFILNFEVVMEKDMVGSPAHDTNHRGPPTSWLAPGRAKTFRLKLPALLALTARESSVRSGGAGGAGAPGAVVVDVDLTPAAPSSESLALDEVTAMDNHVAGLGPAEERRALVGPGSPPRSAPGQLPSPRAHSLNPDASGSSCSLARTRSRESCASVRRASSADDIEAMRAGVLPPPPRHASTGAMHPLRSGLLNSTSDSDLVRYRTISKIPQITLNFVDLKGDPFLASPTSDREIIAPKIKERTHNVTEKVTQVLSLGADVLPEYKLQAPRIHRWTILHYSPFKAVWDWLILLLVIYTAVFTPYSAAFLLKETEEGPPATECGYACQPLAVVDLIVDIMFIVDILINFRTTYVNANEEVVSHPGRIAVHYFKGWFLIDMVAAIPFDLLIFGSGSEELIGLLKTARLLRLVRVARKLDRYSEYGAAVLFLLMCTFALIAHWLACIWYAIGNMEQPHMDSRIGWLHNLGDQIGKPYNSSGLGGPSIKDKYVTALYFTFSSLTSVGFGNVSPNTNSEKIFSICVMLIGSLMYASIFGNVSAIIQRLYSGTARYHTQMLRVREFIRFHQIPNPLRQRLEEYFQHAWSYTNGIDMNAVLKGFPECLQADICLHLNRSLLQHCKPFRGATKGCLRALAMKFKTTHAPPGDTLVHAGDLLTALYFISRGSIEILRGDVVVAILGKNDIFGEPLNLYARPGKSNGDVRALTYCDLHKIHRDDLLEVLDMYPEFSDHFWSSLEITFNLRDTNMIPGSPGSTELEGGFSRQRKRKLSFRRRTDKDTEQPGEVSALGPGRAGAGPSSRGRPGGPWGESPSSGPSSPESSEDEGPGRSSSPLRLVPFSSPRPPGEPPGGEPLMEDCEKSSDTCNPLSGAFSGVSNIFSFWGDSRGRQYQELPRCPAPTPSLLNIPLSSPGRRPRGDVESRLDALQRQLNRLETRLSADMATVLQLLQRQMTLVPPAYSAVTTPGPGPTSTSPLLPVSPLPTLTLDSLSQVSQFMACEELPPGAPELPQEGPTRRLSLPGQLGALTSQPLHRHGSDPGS
Experimental: The in vivo activity of a compound is influenced by its overall bioavailability, which is also driven by parameters, such as solubility, permeability, and metabolism. […] These values are all above the industry cut-off of 60 μg/ml. […] It has CLint in human hepatocytes of 16 μL/min/10^6 cells, which falls into moderate stability range [43].

[4] = target: T2, hERG; test: hERG Qpatch assay; type: cell-based

T1 sequence (P40763 127-711 C542S): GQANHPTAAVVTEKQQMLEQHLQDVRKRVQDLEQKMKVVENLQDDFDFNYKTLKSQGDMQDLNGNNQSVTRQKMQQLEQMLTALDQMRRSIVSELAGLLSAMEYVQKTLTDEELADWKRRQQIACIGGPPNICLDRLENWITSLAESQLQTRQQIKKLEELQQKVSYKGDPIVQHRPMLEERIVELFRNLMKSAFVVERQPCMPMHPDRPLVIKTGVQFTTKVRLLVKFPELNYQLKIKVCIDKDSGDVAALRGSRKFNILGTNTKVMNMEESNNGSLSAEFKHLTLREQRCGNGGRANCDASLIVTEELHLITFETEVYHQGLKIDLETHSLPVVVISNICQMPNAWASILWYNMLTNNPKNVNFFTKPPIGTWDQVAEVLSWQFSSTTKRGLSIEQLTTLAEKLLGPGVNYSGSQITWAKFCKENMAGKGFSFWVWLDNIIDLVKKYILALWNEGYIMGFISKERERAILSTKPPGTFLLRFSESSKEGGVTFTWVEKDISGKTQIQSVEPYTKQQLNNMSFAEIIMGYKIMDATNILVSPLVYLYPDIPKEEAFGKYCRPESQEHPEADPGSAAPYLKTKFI

For `O=C([C@H]1CCN1S(=O)(=O)c1c(F)c(F)c(F)c(F)c1F)N(Cc1ccc(C2CCCCC2)cn1)c1ccc2c(=O)[nH]ncc2c1` [Compound H182], the “Effect on DNA-binding activity of pYStat3C542S” value [1] was “strong inhibition”, the “Effect on cell migration into the denuded area” value [2] was “inhibited the cell migration” and the inhibition at 10 µM [3] was over 80%. The IC50 [4] was over 10 µM.
